Data from publication PMC6627558, “Structures and Bioactivities of Six New Triterpene Glycosides, Psolusosides E, F, G, H, H1, and I and the Corrected Structure of Psolusoside B from the Sea Cucumber Psolus fabricii” (Marine Drugs, 2019).

Columns and labels:
[1] = tested on: mouse neuroblastoma Neuro 2A cells; test: Cytotoxicity against neuroblastoma Neuro 2A cells (nonspecific esterase activity assay); type: cell-based; conditions: mouse neuroblastoma Neuro 2A cells
Method: (§1) The museum tetraploid strain of murine ascite Ehrlich carcinoma cells from the All-Russian Oncology Center (Moscow, Russia) was used. The cells were separated from the ascites, which were collected on day 7 after inoculation in mouse CD-1 line. The cells were washed of the ascites triply and resuspended in RPMI-1640 medium containing 8 μg/mL gentamicin (BioloT, St-Petersburg, Russia). Neuroblastoma Neuro 2A cells were cultured in DMEM medium containing 10% fetal bovine serum (FBS), (BioloT, St-Petersburg, Russia) and normal epithelial JB-6 cells were cultured in DMEM medium containing 5% fetal bovine serum (FBS), (BioloT, St-Petersburg, Russia) and 1% penicillin/streptomycine (Invitrogen). The HT-29 (ATCC # HTB-38) human colon cancer cell line was grown in monolayer in McCoy’s 5A medium supplemented with 10% (v/v) heat-inactivated FBS, 2 mM L-glutamine, and 1% penicillin-streptomycin in a humidified atmosphere containing 5% CO2. Cells were maintained in a sterile environment and kept in an incubator at 5% CO2 and 37 °C to promote growth. HT-29 cells were sub-cultured every 3–4 days by rinsing with phosphate buffered saline (PBS), adding trypsin to detach the cells from the tissue culture flask, and transferring 10%–20% of the harvested cells to a new flask containing fresh growth media.
(§2) Cytotoxic activity against ascite form of mouse Ehrlich carcinoma cells was investigated by nonspecific esterase activity assay. In total, 10µL of the test substance solution and 100 μL of the cell suspension were placed into each well of a 96-well microplate. The plate was incubated in a CO2 incubator at 37 °C for 1 or 24 h. A stock solution of the probe fluorescein diacetate (FDA; Sigma, St. Louis, MO, USA) in DMSO (1 mg/mL) was prepared. After incubation of the cells with test compounds, 10 μL of FDA solution (50 μg/mL) was added to each well and the plate was incubated at 37 °C for 15 min. Cells were washed with PBS, and fluorescence was measured with a Fluoroskan Ascent plate reader (Thermo Labsystems, Helsinky, Finland) at λex = 485 nm and λem = 518 nm. All experiments were repeated in triplicate. Cytotoxic activity was expressed as the percent of cell viability. Nonspecific esterase activity assay has been used for determination of cytotoxicity against neuroblastoma Neuro 2A and normal epithelial JB-6 cells.

[2] = tested on: normal epithelial JB-6 cells; test: Cytotoxicity against normal epithelial JB-6 cells (nonspecific esterase activity assay); type: cell-based, mouse; conditions: normal epithelial JB-6 cells
Method: as §1, §2

[3] = tested on: ascite form of mouse Ehrlich carcinoma cells; test: Cytotoxic activity against ascite form of mouse Ehrlich carcinoma cells (nonspecific esterase / MTT assay); type: cell-based
Method: as §1, §2
The solutions of tested substances in different concentrations (20 µL) and cell suspension (200 µL) were added in wells of 96-well plate and incubated over night at 37 °C and 5% CO2. After incubation, the cells were sedimented by centrifugation, 200 µL of medium from each well were collected, and 100 µL of pure medium were added. Then, 10 µL of MTT solution […] (Sigma, St. Louis, MO, USA) were added in each well. The plate was incubated for 4 h, after which 100 µL SDS-HCl were added to each well, and the plate was incubated at 37 °C for 4–18 h. Optical density was measured at 570 nm and 630–690 nm. Cytotoxic activity of the substances was calculated as the concentration that caused 50% metabolic cell activity inhibition (IC50). The MTT assay has been used for determination of cytotoxic activity against Ehrlich carcinoma cells.

[4] = tested on: human colorectal adenocarcinoma HT-29 cells; test: MTS assay, cell viability of HT-29 cells; type: cell-based; conditions: 0–20 μM, 24 h
Method: as §1
The HT-29 cells (1.0 × 10^4/well) were seeded in 96-well plates for 24 h at 37 °C in 5% CO2 incubator. The cells were treated with the tested substances at concentrations range from 0 to 20 μM for an additional 24 h. Subsequently, cells were incubated with 15 μL MTS reagent for 3 h and the absorbance in each well was measured at 490/630 nm using microplate reader “Power Wave XS” (Bio Tek, Winooski, VT, USA). All the experiments were repeated three times, and the mean absorbance values were calculated. The results are expressed as the percentage of inhibition that produced a reduction in absorbance by compound’s treatment compared to the non-treated cells (control).

[5] = tested on: human colorectal adenocarcinoma HT-29 cells; test: Soft agar assay, colony formation and growth of HT-29 cells; type: cell-based; conditions: 0–10 μM, 14 days, read-out: Soft Agar Assay ICCF50 (inhibition of colony formation)
Method: as §1
The HT-29 cells (8.0 × 10^3) were seeded in 6-well plate and treated with the tested compounds at concentrations range 0–10 μM in 1 mL of 0.3% Basal Medium Eagle (BME) agar containing 10% FBS, 2mM L-glutamine, and 25 μg/mL gentamicin. The cultures were maintained at 37 °C in a 5% CO2 incubator for 14 days, and the cell’s colonies were scored using a microscope “Motic AE 20” (Scientific Instrument Company, Campbell, CA, USA) and the Motic Image Plus version 2.0 (Scientific Instrument Company, Campbell, CA, USA) computer program.

mouse erythrocytes = test: Hemolytic activity against mouse erythrocytes; type: cell-based; conditions: 24 h at 37 °C, read-out: Cytotoxicity EC50, Erhythrocytes (hemolytic activity)
Method: Blood was taken from CD-1 mice (18–20 g). The mice were anesthetized with diethyl ether, their chests were rapidly opened, and blood was collected in cold (4 °C) 10 mM phosphate-buffered saline, pH 7.4 (PBS) without anticoagulant. Erythrocytes were washed 3 times in PBS using at least 10 vol. of washing solution by centrifugation (2000 rpm) for 5 min. Erythrocytes were used at a concentration that provided an optical density of 1.0 at 700 nm for a non-hemolyzed sample. Then, 20 μL of a water solution of test substance with a fixed concentration was added to a well of a 96-well plate containing 180 μL of the erythrocyte suspension. Erythrocyte suspension was incubated with substances for 24 h at 37 °C. After that, the optical density of the obtained solutions was measured and ED50 for hemolytic activity of each compound was calculated.

SMILES: C=C(C)CCC[C@]1(C)OC(=O)[C@]23CC=C4[C@@H](CC[C@H]5C(C)(C)[C@@H](O[C@@H]6OC[C@@H](O)[C@H](O)[C@H]6O[C@@H]6O[C@H](C)[C@@H](O[C@@H]7O[C@H](COS(=O)(=O)[O-])[C@@H](O)[C@H](O[C@@H]8O[C@H](COS(=O)(=O)[O-])[C@@H](O)[C@H](OC)[C@H]8O)[C@H]7O)[C@H](O)[C@H]6O)CC[C@]45C)[C@]2(C)CC(=O)[C@@H]31.[Na+].[Na+] [Psolusoside A, 3β-O-[6-O-sodium sulfate-3-O-methyl-β-D-glucopyranosyl-(1→3)-6-O-sodium-sulfate-β-D-glucopyranosyl-(1→4)-β-D-quinovopyranosyl-(1→2)-β-D-xylopyranosyl]-16-ketoholosta-9(11),25-diene, reference compound]
- EC50 [1]: 2.9 µM
- EC50 [2]: 7.5 µM
- cytotoxic action against mouse Ehrlich carcinoma cells (in words) ([3]; ascite form): moderate cytotoxic action
- EC50 ([3]; ascite form of mouse Ehrlich carcinoma cells, read-out: Cytotoxicity EC50, Ehrlich carcinoma): 30.9 µM
- IC50 [4]: > 20 µM
- IC50 [5]: > 10 µM
- EC50 (mouse erythrocytes): 1.4 µM
